Reference: patent publication US20090054316A1, “AGENT FOR CONTROL OF FUNCTION OF ANTIGEN-PRESENTING CELL” (RIKEN, priority 2005, published 2009)

Tests used:
[1] = tested on: dendritic cell; test: Dendritic cell activation or inactivation, same in vitro system as Examples 1 and 2; assay type: cell-based, mouse; settings: treatment with 1-10 μM
Description: (§1) Bone marrow cells were obtained from a C57BL/6 mouse (obtained from Clea Japan) and subjected to cell culture using an RPMI medium (SIGMA, R8758) supplemented with 10% FCS (EQUITECH-BIO Inc., #SFB-30-1388) and granulocyte macrophage colony stimulating factor (GM-CSF) in a 5% CO2 environment at 37° C. for 6 days to induce the differentiation of bone marrow-derived dendritic cells (BMDC). To this BMDC, TPEN (SIGMA, P4413) was added for 6 hours to 12 hours to obtain concentrations of 0-2 μM in the medium. Also prepared was a group in which lipopolysaccharide (LPS; 100 ng/mL; SIGMA, L2637, E. Coli O55:B5) was added for control of antigen-presenting cell activation. […] When the cells were treated with the zinc ion chelator, the expression of MHC class II molecule on BMDC was enhanced as with LPS.
In the same experiment (in vitro system) as Examples 1 and 2, dendritic cell activation or inactivation was observed by a treatment with 1-10 μM zinc ion or TPEN.

[2] = tested on: bone marrow-derived dendritic cells (BMDC); test: Expression of MHC class I, class II and CD86 molecules on the cell surface of dendritic cells treated with a zinc ion chelator (FACS); assay type: cell-based, mouse; settings: for expression of MHC class II molecule on BMDC: TPEN 0-2 μM for 6 to 12 hours (dose and treatment time dependency), LPS 100 ng/mL as activation control, FACS
Description: Dendritic cells, a type of antigen-presenting cells, were treated with N,N,N′,N′-tetrakis(2-pyridylmethyl)ethylenediamine (TPEN), a zinc ion chelator, and examined for the expression of MHC class I molecule, class II molecule and CD86 molecule on the cell surface.
as §1

[3] = dendritic cells treated with zinc ion chelator, FIG. 1

Row | Molecule | dendritic cell activation or inactivation [1] | expression of MHC class II molecule on BMDC [2] | expression of CD86 molecule on the cell surface [2, 3] | expression of MHC class I molecule on the cell surface [2, 3]
1 | O=S(=O)([O-])[O-].[Zn+2] [zinc ion, ZnSO4] | observed |  |  | 
2 | lipopolysaccharide [LPS] |  | enhanced |  | 
3 | c1ccc(CN(CCN(Cc2ccccn2)Cc2ccccn2)Cc2ccccn2)nc1 [TPEN, N,N,N′,N′-tetrakis(2-pyridylmethyl)ethylenediamine] | observed | enhanced | enhanced | enhanced
